Experimental data: patent US9901095B2, “Processes for the preparation of pesticidal compounds” (Dow AgroSciences LLC, priority 2013, dated 2018)

How the values were obtained:
[1] = test system: Sweetpotato Whitefly Crawler (Bemisia tabaci) (BEMITA); experiment: Bioassay on Sweetpotato Whitefly Crawler, foliar spray on cotton plants; format: in vivo; conditions: 200 ppm spray on cotton plants; live nymphs counted after 8-9 days; Abbott's correction
Procedure: Cotton plants grown in 3-inch pots, with 1 small (3-5 cm) true leaf, were used at test substrate. The plants were placed in a room with whitely adults. Adults were allowed to deposit eggs for 2-3 days. After a 2-3 day egg-laying period, plants were taken from the adult whitefly room. Adults were blown off leaves using a hand-held Devilbliss sprayer (23 psi). Plants with egg infestation (100-300 eggs per plant) were placed in a holding room for 5-6 days at 82° F. and 50% RH for egg hatch and crawler stage to develop. Four cotton plants were used for each treatment. Compounds (2 mg) were dissolved in 1 mL of acetone solvent, forming stock solutions of 2000 ppm. The stock solutions were diluted 10× with 0.025% Tween 20 in water to obtain a test solution at 200 ppm. A hand-held Devilbliss sprayer was used for spraying a solution to both sides of cotton leaf until runoff. Reference plants (solvent check) were sprayed with the diluent only. Treated plants were held in a holding room for 8-9 days at approximately 82° F. and 50% RH prior to grading. Evaluation was conducted by counting the number of live nymphs per plant under a microscope.

[2] = test system: Green Peach Aphid (Myzus persicae) (MYZUPE); experiment: Bioassay on Green Peach Aphid (GPA), foliar spray on cabbage seedlings; format: in vivo; conditions: 200 ppm spray on cabbage seedlings; live aphids counted after three days; Abbott's correction
Procedure: Several molecules disclosed herein were tested against GPA using procedures described below.
Cabbage seedling grown in 3-in pots, with 2-3 small (3-5 cm) true leaves, were used as test substrate. The seedlings were infested with […] (wingless adult and nymph stages) one day prior to chemical application. Four pots with individual seedlings were used for each treatment. Test compounds (2 mg) were dissolved in 2 mL of acetone/methanol (1:1) solvent, forming stock solutions of 1000 ppm test compound. The stock solutions were diluted 5× with 0.025% Tween 20 in water to obtain the solution at 200 ppm test compound. A hand-held aspirator-type sprayer was used for spraying a solution to both sides of the cabbage leaves until runoff. Reference plants (solvent check) were sprayed with the diluent only containing 20% by volume acetone/methanol (1:1) solvent. Treated plants were held in a holding room for three days at approximately 25° C. and ambient relative humidity (RH) prior to grading. Evaluation was conducted by counting the number of live aphids per plant under a microscope. Percent Control was measured by using Abbott's correction formula (W. S. Abbott, “A Method of Computing the Effectiveness of an Insecticide” J. Econ. Entomol 18 (1925), pp. 265-267) as follows. Corrected % Control=100*(X−Y)/X
X=No. of live aphids on solvent check plants and
Y=No. of live aphids on treated plants
The results are indicated in the table entitled “Table 1: GPA (MYZUPE) and sweetpotato whitefly-crawler (BEMITA) Rating Table”.

Structure (SMILES) | BEMITA rating (% Control of Mortality) [1] | MYZUPE rating (% Control of Mortality) [2]
Cl.Nc1c[nH]nc1Cl [Compound 1a, 3-Chloro-1H-pyrazol-4-amine hydrochloride] | B (More than 0-Less than 80) | B (More than 0-Less than 80)
CC(=O)Nc1c[nH]nc1Cl [Compound 1b, N-(3-Chloro-1H-pyrazol-4-yl)acetamide] | B (More than 0-Less than 80) | B (More than 0-Less than 80)
CC(=O)Nc1cn(-c2cccnc2)nc1Cl [Compound 1c, N-(3-Chloro-1-(pyridin-3-yl)-1H-pyrazol-4-yl)acetamide] | B (More than 0-Less than 80) | B (More than 0-Less than 80)
CCNc1cn(-c2cccnc2)nc1Cl [Compound 1d, 3-Chloro-N-ethyl-1-(pyridin-3-yl)-1H-pyrazol-amine] | B (More than 0-Less than 80) | B (More than 0-Less than 80)
CCN(C(=O)CCCl)c1cn(-c2cccnc2)nc1Cl [Compound 2a, 3-Chloro-N-(3-chloro-1-(pyridin-3-yl)-1H-pyrazol-4-yl)-N-ethylpropanamide] | A (80-100) | A (80-100)
CCN(C(=O)CCSCCC(F)(F)F)c1cn(-c2cccnc2)nc1Cl [Compound 6.2, N-(3-Chloro-1-(pyridin-3-yl)-1H-pyrazol-4-yl)-N-ethyl-3-((3,3,3-trifluoropropyl)thio)propanamide] | A (80-100) | A (80-100)
CCN(C(=O)CC[S+]([O-])CCC(F)(F)F)c1cn(-c2cccnc2)nc1Cl (centres unmarked) [Compound 7.2, N-(3-Chloro-1-(pyridin-3-yl)-1H-pyrazol-4-yl)-N-ethyl-3-((3,3,3-trifluoropropyl)sulfoxo)propanamide] | A (80-100) | A (80-100)
